The subject of experiment [1] is RAS dependent cells. Nature of the experiment: Cell Viability Assay (MTS), overall statement. In kind it is cell-based. The note with it: FIG. 2. The text has this:
(§1) Selective screening using RAS-driven and RAS-non-driven cells: (1) RAS-driven cells, including cells with persistent RAS activation due to RAS mutations and upstream EGFR activation. Cells that are continuously activated due to RAS mutations, such as KRAS G12D (AsPC-1, HPAC, etc.) mutant cells, KRAS G12C (NCI-H358, MIAPaCa-2, etc.) KRAS G13D (LOVO, HCT15, etc.) mutant cells, etc. Cells with continuous activation of RAS due to EGFR mutations, such as EGFREx19del (PC-9, etc.) mutant cells, EGFRT790M/L858R (NCI-H1975, etc.) mutant cells, etc.; (2) Non-RAS driven cells, including BRAFV600E (A375, SK)-MEL-3, etc.) mutant cells, RASWT (BxPC-3, etc.) cells, etc.
(§2) Specific experimental methods: The above cells were seeded in a 96-well plate at a density of 1000-10000 per well. Drugs were diluted in DMSO to make a 10 mM stock solution. Subsequently, the drug was diluted in a 3-fold gradient to a final concentration of 1000 nM. The cells were treated with the drug for 5 days. Cell viability was then detected by the MTS method.

The target in experiment [2] is KRAS Q61H GTP + RAF1 + CYPA (Homo sapiens, UniProt P01116+P62937, Q61H). The experiment in a line: Ras: RAF1 HTRF Assay (RAS-GTP & Raf disruption). In kind it is biochemical. The note with it: 1 h incubation, room temperature. In general terms: TR-FRET usually uses a lanthanide donor and a delayed reading to cut background.
Experiment [3] has as its system RAF1 with active KRAS mutant protein or HRAS WT protein. Nature of the experiment: Ras: RAF1 HTRF Assay, overall statement. In kind it is biochemical. Conditions: in words; FIG. 1.
Experiment [4] deals with KRAS G12V GTP + RAF1 + CYPA (Homo sapiens, UniProt P01116+P62937, G12V). Nature of the experiment: Ras: RAF1 HTRF Assay (RAS-GTP & Raf disruption). In kind it is biochemical. The note with it: 1 h incubation, room temperature. As for the experimental part:
(§3) This example is to verify the binding between RAS protein and its interacting protein (SOS1 or RAF1). When RAS exists with SOS1 or RAF, the two interact to make the energy donor and receptor bound to it close enough, and then when the donor is excited by an external light source, energy resonance transfer occurs, thereby exciting the receptor and emitting a specific wavelength of emitted light, the FRET signal is detected.
(§4) Specific experimental methods: 20 nM purified RAS protein (e.g. KRAS-G12D, G12V, G12C, WT; NRAS-WT) was incubated with the drug to be screened (the drug was diluted in a 3-fold gradient to a final concentration of 1000 nM) at room temperature for 1 h. Subsequently, 30 nM purified SOS1-Cat was added and incubated at room temperature for 0.5-1 h. After adding the detection antibody (PerkinElmer, Cisbio, HTRF antibody), the value was measured according to the manufacturer's instructions.

Experiment [5] deals with KRAS G12R GTP + RAF1 + CYPA (Homo sapiens, UniProt P01116+P62937, G12R). Nature of the experiment: Ras: RAF1 HTRF Assay (RAS-GTP & Raf disruption). The class given is biochemical. The note with it: 1 h incubation, room temperature. As for the experimental part: as §3, §4
The target of experiment [6] is KRAS G12D GTP + RAF1 + CYPA (Homo sapiens, UniProt P01116+P62937, G12D). Nature of the experiment: Ras: RAF1 HTRF Assay (RAS-GTP & Raf disruption). In kind it is biochemical. The note with it: 1 h incubation, room temperature. As for the experimental part: as §3, §4
In experiment [7] the target is HRAS WT GTP + RAF1 + CYPA (Homo sapiens, UniProt P01112+P62937). The experiment in a line: Ras: RAF1 HTRF Assay (RAS-GTP & Raf disruption). The class given is biochemical. Conditions: 1 h incubation, room temperature. Here is the method:
as §3, §4

Experiment [8] concerns the target KRAS G12C GTP + RAF1 + CYPA (Homo sapiens, UniProt P01116+P62937, G12C). Nature of the experiment: Ras: RAF1 HTRF Assay (RAS-GTP & Raf disruption). The class given is biochemical. The note with it: 1 h incubation, room temperature. Here is the method:
as §3, §4

Experiment [9] has as its target KRAS G12S GTP + RAF1 + CYPA (Homo sapiens, UniProt P01116+P62937, G12S). The experiment in a line: Ras: RAF1 HTRF Assay (RAS-GTP & Raf disruption). In kind it is biochemical. Conditions: 1 h incubation, room temperature. As for the experimental part: as §3
Specific experimental methods: 20 nM purified RAS protein (e.g. KRAS-G12D, G12V, G12C, WT; NRAS-WT) was incubated with the drug to be screened (the drug was diluted in a 3-fold gradient to a final concentration of 1000 nM) at room temperature for 1 h. […] After adding the detection antibody (PerkinElmer, Cisbio, HTRF antibody), the value was measured according to the manufacturer's instructions.

Experiment [10] has as its system AGS (KRAS G12D) cells. The experiment in a line: Cell Viability Assay (MTS). Conditions: 5 days, FIG. 2. In kind it is cell-based.
Source text: as §1, §2

Experiment [11] relates to SW620 (KRAS G12V) cells. The experiment in a line: Cell Viability Assay (MTS). The class given is cell-based. The note with it: 5 days, FIG. 2.
Source text: as §1, §2

Experiment [12] relates to HepG2 (NRAS Q61L) cells. Nature of the experiment: Cell Viability Assay (MTS). The class given is cell-based. The note with it: 5 days, FIG. 2.
Source text: as §1, §2

For experiment [13], the system named is A375 (BRAF V600E) cells. Nature of the experiment: Cell Viability Assay (MTS). In kind it is cell-based. The note with it: RAS-independent, 5 days, FIG. 2.
Source text: as §1, §2

Experiment [14] relates to NCI-H1975 (EGFR T790M/L858R) cells. The experiment in a line: Cell Viability Assay (MTS). In kind it is cell-based. Conditions: 5 days, FIG. 2.
Source text: as §1, §2

Experiment [15] deals with LOVO (KRAS G13D) cells. Nature of the experiment: Cell Viability Assay (MTS). In kind it is cell-based. The note with it: 5 days, FIG. 2.
Source text: as §1, §2

Structures are written as SMILES. “Also recorded” adds a separate entry of the source.

HRAS WT GTP + RAF1 + CYPA, sequence (P01112 whole entry): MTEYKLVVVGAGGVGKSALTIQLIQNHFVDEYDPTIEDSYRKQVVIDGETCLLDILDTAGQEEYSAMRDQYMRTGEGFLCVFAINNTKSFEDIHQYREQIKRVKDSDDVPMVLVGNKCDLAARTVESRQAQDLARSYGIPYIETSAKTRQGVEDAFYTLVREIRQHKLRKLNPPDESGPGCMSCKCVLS
HRAS WT GTP + RAF1 + CYPA, sequence (P62937 whole entry): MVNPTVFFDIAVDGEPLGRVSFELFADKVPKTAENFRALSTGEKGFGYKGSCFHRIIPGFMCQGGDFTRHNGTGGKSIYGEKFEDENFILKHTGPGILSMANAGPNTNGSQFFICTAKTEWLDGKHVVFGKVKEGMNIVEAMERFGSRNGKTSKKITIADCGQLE
KRAS G12S GTP + RAF1 + CYPA, sequence (P01116 1-188 isoform P01116-2 G12S): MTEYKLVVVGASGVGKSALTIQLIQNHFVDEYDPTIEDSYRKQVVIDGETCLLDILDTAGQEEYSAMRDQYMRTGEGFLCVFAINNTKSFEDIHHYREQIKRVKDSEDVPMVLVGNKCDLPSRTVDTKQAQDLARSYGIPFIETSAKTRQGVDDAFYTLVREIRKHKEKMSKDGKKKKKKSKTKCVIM
KRAS G12S GTP + RAF1 + CYPA, sequence (P62937 whole entry): as the sequence (P62937 whole entry) above
KRAS Q61H GTP + RAF1 + CYPA, sequence (P01116 1-188 isoform P01116-2 Q61H): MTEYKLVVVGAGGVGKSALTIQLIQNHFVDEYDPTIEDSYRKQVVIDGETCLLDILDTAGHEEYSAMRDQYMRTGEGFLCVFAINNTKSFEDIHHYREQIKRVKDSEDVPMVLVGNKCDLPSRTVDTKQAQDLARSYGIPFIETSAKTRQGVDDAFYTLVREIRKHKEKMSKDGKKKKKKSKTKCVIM
KRAS Q61H GTP + RAF1 + CYPA, sequence (P62937 whole entry): as the sequence (P62937 whole entry) above
KRAS G12D GTP + RAF1 + CYPA, sequence (P01116 1-188 isoform P01116-2 G12D): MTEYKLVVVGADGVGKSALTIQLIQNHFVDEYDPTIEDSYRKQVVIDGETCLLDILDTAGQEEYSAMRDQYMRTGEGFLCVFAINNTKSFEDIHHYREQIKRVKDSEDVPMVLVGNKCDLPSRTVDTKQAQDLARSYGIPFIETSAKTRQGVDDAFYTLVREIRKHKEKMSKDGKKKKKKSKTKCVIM
KRAS G12D GTP + RAF1 + CYPA, sequence (P62937 whole entry): as the sequence (P62937 whole entry) above
KRAS G12R GTP + RAF1 + CYPA, sequence (P01116 1-188 isoform P01116-2 G12R): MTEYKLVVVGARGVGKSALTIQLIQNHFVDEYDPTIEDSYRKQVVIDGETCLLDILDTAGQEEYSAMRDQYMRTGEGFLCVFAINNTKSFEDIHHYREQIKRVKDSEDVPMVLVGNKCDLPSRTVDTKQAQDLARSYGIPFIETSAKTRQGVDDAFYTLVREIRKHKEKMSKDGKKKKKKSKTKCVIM
KRAS G12R GTP + RAF1 + CYPA, sequence (P62937 whole entry): as the sequence (P62937 whole entry) above
KRAS G12V GTP + RAF1 + CYPA, sequence (P01116 1-188 isoform P01116-2 G12V): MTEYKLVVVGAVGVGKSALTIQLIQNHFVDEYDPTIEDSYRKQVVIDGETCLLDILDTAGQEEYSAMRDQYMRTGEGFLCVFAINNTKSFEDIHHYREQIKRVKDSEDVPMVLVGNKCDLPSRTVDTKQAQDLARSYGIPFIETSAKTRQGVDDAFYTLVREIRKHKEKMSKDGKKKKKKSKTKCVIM
KRAS G12V GTP + RAF1 + CYPA, sequence (P62937 whole entry): as the sequence (P62937 whole entry) above
KRAS G12C GTP + RAF1 + CYPA, sequence (P01116 1-188 isoform P01116-2 G12C): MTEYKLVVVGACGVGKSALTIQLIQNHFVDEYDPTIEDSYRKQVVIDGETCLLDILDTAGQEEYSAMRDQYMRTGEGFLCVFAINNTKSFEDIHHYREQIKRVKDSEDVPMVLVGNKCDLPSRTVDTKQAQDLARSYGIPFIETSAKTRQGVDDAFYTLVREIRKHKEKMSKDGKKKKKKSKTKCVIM
KRAS G12C GTP + RAF1 + CYPA, sequence (P62937 whole entry): as the sequence (P62937 whole entry) above

By IC50 is commonly meant the concentration that gives 50% inhibition. Turning to `CCn1c(-c2cc(P(C)(C)=O)ccc2[C@H](C)OC)c2c3cc(ccc31)-c1cc(O)cc(c1)C[C@H](NC(=O)[C@H](C(C)C)N(C)C(=O)[C@@H]1OCC[C@@H]1c1ccccc1)C(=O)N1CCC[C@H](N1)C(=O)OCC(C)(C)C2` [Example 2, (2R,3R)—N-((2S)-1-(((6^3S,4S)-1^2-(5-(dimethylphosphoryl)-2-((S)-1-methoxyethyl)phenyl)-1^1-ethyl-2^5-hydroxy-10,10-dimethyl-5,7-dioxo-6^1,6^2,6^3,6^4,6^5,6^6-hexahydro-1^1H-8-oxa-1(5,3)-indola-6(1,3)-pyridazina-2(1,3)-benzenacycloundecaphane-4-yl)amino)-3-methyl-1-oxobutan-2-yl)-N-methyl-3-phenyltetrahydrofuran-2-carboxamide], the “inhibition of cell viability” value in experiment [1] is “potently inhibited”; in experiment [10] it was “significantly inhibited”; in experiment [11] it was “significantly inhibited”; in [12], “significantly inhibited”; in experiment [13] it was “relative insensitive”; in experiment [14], “significantly inhibited”. The “inhibition of cell viability” value in [15] was “significantly inhibited”. For the same compound, the 50% inhibitory concentration (IC50) in experiment [2] was 31.24 ± 0.3 nM; in experiment [4], 165 ± 7.92 nM; in [5] it was 729 ± 106 nM; in experiment [6], 55.9 ± 8.92 nM; in experiment [7] it was 467.8 ± 4.6 nM; in [8], 15.8 ± 3.97 nM. Also, the IC50 in experiment [9] turned out to be 19.6 ± 1.03 nM. Besides, the “inhibition of the interaction of RAF1 with active KRAS mutant protein or HRAS WT protein” value in experiment [3] is “potently inhibited; also recorded: significantly inhibited”.
